Measurements from US20210038607A1, “OXADIAZOLYLTHIOPHENE DERIVATIVES USEFUL AS HISTONE DEACETYLASE INHIBITORS” (Karus Therapeutics Limited, priority 2018, published 2021).

Legend:
[1] = target: T1, Human HDAC1 (Homo sapiens, UniProt Q13547); test: HDAC1 biochemical assay, AMC-labeled peptide substrate; details: read-out: HDAC Isoform IC50 (nM) 1
T1 construct: full length with C-terminal His-tag and C-terminal FLAG-tag; His (C); FLAG (C); host or cells: baculovirus expression system
Procedure, shortened: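 Two-step fluorogenic read: HDAC1 deacetylates 50 μM acetyl-lysine AMC peptide RHKK(Ac)AMC for 1 h at 30° C (pH 8.0, 1% DMSO, with compound), then developer digests the product for fluorescence at Ex/Em 360/460. Enzyme is full-length human, His/FLAG-tagged, insect-cell expressed, at 0.3 ng/ul.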

[2] = target: T2, Human HDAC4 (Homo sapiens, UniProt P56524); test: HDAC4 biochemical assay, class IIa-specific substrate; details: read-out: HDAC Isoform IC50 (nM) 4
T2 construct: amino acids 627-1085 with N-terminal GST tag; GST (N); host or cells: baculovirus expression system
Procedure, shortened: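 Two-step fluorogenic read-out: deacetylated BOC-Lys(trifluoroacetyl)-AMC (50 μM) was digested by developer and measured at Ex/Em 360/460. Deacetylation by 0.004 ng/ul HDAC4 (aa 627-1085, N-terminal GST) ran 30 min at room temperature, pH 8.0 Tris buffer, 1 mg/mL BSA, 1% DMSO.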

[3] = target: T3, Human HDAC5 (Homo sapiens, UniProt Q9UQL6); test: HDAC5 biochemical assay, class IIa-specific substrate; details: read-out: HDAC Isoform IC50 (nM) 5
T3 construct: full length with C-terminal His tag, MW=51.1 kDa; His (C); host or cells: baculovirus expression system
Procedure, shortened: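 Two-step fluorogenic read-out: deacetylated trifluoroacetyl-lysine AMC substrate (50 μM) digested by developer, measured at Ex/Em 360/460. Deacetylation step: 0.05 ng/ul His-tagged full-length baculoviral enzyme with compound, 30 min, room temperature, pH 8.0 Tris with 1 mg/mL BSA and 1% DMSO.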

[4] = target: T4, Recombinant human HDAC6 (Homo sapiens, UniProt Q9UBN7); test: HDAC6 biochemical assay, AMC-labeled peptide substrate; details: HDAC6; read-out: HDAC Isoform IC50 (nM) 6
T4 construct: full length, MW=159 kDa; GST (N); host or cells: Sf9 insect cells (baculovirus)
T4 sequence (Q9UBN7 1-1215): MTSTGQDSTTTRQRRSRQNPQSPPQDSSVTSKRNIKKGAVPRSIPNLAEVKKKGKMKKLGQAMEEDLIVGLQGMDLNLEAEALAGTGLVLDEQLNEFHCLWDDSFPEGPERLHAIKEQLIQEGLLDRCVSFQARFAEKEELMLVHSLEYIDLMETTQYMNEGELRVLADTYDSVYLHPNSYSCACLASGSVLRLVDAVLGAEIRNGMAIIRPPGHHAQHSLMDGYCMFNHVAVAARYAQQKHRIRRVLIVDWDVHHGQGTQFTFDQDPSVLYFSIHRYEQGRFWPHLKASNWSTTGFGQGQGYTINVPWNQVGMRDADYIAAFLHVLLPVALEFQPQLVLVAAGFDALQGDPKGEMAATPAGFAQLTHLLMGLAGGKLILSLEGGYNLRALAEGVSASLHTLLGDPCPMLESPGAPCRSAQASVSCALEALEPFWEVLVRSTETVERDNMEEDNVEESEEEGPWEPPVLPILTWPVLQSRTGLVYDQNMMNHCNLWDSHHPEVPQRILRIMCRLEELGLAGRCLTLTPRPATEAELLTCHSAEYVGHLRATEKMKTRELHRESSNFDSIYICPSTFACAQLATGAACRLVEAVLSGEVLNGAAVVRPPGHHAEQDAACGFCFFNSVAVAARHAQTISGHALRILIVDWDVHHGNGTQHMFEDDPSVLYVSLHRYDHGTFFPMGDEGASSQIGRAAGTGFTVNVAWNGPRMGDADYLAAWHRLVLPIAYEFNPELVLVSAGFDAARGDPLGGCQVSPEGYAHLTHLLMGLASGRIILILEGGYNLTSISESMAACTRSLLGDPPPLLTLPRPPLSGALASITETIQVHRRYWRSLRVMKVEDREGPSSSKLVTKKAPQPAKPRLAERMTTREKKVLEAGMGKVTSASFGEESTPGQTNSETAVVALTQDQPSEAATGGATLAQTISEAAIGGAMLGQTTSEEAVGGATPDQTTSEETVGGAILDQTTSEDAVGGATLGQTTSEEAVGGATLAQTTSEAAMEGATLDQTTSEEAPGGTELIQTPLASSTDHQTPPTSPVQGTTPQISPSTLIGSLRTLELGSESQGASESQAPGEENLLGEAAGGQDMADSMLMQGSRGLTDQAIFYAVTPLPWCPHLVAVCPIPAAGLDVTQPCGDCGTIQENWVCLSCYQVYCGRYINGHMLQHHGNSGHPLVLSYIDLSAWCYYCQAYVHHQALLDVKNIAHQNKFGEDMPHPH
Procedure, shortened: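 Two-step fluorogenic read-out: enzyme deacetylates 50 μM RHKK(Ac)AMC for 1 h at 30° C in pH 8.0 Tris buffer with BSA and 1% DMSO, then developer cleavage gives signal at Ex 360/Em 460. Enzyme: 0.3 ng/ul recombinant full-length human HDAC6, GST-tagged, Sf9-expressed.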

[5] = target: T5, Human HDAC7 (Homo sapiens, UniProt Q8WUI4); test: HDAC7 biochemical assay, class IIa-specific substrate; details: read-out: HDAC Isoform IC50 (nM) 7
T5 construct: (a.a. 518-end) with N-terminal GST tag; GST (N); host or cells: baculovirus expression system
T5 sequence (Q8WUI4 518-952 limits assumed): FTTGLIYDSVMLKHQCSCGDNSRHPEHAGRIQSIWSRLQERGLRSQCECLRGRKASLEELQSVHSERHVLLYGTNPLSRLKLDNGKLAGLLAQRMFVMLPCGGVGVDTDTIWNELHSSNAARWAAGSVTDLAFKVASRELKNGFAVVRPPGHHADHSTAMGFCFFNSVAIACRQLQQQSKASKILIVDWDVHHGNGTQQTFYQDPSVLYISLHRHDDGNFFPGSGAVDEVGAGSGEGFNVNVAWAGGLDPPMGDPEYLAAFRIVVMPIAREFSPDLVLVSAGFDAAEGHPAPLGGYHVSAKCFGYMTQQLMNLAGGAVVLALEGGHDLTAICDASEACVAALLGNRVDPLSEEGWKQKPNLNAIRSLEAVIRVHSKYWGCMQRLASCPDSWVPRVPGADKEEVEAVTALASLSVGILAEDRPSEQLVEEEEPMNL
Procedure, shortened: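 Two-step fluorogenic readout: class IIa-selective trifluoroacetyl-lysine AMC substrate (50 μM) deacetylated by N-terminal GST-HDAC7 fragment (0.001 ng/ul), then digested by developer, Ex/Em 360/460. Reaction: 30 min, room temperature, Tris-HCl pH 8.0, NaCl/KCl/MgCl2, 1 mg/mL BSA, 1% DMSO.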

[6] = target: T6, Human HDAC9 (Homo sapiens, UniProt Q9UKV0); test: HDAC9 biochemical assay, class IIa-specific substrate; details: read-out: HDAC Isoform IC50 (nM) 9
T6 construct: amino acids 604-1066 with C-terminal His tag; His (C); host or cells: baculovirus expression system
Procedure, shortened: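 HDAC9 residues 604-1066 (C-terminal His tag, baculovirus-expressed) at 0.06 ng/ul with 50 μM class IIa substrate Boc-Lys(trifluoroacetyl)-AMC in Tris-HCl pH 8.0 buffer with BSA and 1% DMSO. 30 min at room temperature, then developer added; fluorescence read at 360/460 nm Ex/Em.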

T3 sequence (Q9UQL6 656-1122 limits assumed): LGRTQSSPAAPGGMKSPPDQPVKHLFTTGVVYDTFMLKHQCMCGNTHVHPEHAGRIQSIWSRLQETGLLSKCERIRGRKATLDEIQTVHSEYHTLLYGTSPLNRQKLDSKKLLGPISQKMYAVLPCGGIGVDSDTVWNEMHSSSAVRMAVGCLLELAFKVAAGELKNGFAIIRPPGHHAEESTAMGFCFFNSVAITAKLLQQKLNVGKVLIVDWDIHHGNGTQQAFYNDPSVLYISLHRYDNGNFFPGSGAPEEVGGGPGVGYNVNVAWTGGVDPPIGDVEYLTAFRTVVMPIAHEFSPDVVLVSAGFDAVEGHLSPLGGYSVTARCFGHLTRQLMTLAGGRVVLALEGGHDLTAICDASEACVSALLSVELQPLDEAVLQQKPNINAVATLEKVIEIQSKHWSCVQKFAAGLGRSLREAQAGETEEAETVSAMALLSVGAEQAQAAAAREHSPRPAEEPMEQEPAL
T2 sequence (P56524 627-1084 limits assumed): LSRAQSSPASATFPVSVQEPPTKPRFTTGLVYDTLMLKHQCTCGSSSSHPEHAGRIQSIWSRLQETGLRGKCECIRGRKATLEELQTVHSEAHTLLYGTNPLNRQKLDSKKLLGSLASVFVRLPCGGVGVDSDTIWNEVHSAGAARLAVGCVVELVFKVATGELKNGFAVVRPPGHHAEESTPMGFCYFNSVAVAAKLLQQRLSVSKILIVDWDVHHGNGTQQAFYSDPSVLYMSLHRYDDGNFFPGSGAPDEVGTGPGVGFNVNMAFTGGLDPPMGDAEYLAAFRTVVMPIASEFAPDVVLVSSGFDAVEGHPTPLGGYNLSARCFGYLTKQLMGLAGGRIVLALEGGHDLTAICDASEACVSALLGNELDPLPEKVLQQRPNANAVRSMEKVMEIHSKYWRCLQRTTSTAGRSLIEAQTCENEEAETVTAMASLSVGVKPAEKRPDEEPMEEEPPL
T1 sequence (Q13547 whole entry, canonical isoform): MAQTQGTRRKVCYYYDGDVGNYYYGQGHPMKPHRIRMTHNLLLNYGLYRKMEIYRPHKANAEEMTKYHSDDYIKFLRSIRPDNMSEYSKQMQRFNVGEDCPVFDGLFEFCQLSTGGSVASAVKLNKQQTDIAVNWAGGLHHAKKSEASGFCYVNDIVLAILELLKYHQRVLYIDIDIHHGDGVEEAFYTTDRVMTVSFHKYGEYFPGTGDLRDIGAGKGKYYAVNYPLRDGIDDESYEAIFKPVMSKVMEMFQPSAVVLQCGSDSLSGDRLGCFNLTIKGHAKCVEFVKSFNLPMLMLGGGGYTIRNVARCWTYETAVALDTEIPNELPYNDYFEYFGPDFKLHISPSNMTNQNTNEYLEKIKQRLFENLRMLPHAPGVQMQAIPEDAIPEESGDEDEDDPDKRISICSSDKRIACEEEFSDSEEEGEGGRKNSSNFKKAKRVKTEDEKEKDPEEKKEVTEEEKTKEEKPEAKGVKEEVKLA
T6 sequence (Q9UKV0 604-1066 isoform Q9UKV0-5): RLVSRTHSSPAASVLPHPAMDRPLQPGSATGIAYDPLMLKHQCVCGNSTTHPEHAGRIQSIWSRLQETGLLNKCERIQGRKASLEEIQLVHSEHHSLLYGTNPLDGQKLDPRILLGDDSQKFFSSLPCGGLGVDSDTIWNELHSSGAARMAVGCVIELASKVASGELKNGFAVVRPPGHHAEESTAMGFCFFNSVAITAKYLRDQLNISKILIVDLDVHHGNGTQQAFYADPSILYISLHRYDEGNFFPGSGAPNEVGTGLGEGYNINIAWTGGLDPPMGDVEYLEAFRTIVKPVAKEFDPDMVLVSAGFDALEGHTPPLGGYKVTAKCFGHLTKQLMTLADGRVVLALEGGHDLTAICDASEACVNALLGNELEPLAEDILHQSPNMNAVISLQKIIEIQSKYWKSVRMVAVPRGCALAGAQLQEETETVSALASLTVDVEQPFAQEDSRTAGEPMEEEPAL

| Compound | IC50 [1] [nM] | IC50 [2] [nM] | IC50 [3] [nM] | IC50 [4] [nM] | IC50 [5] [nM] | IC50 [6] [nM] |
| --- | --- | --- | --- | --- | --- | --- |
| Cc1cnc(N(Cc2ccc(-c3noc(C(F)(F)F)n3)s2)c2cnccn2)nc1 [Example AW, 5-Methyl-N-(pyrazin-2-yl)-N-({5-[5-(trifluoromethyl)-1,2,4-oxadiazol-3-yl]thiophen-2-yl}methyl)pyrimidin-2-amine] | > 10000 | ≤ 10000 | ≤ 10000 | ≤ 10000 | ≤ 10000 | ≤ 10000 |
| FC(F)(F)c1nc(-c2ccc(CN(c3cnccn3)c3ccc4ncccc4n3)s2)no1 [Example X, N-(Pyrazin-2-yl)-N-({5-[5-(trifluoromethyl)-1,2,4-oxadiazol-3-yl]thiophen-2-yl}methyl)-1,5-naphthyridin-2-amine] | > 10000 | ≤ 500 | ≤ 1000 | ≤ 1000 | ≤ 1000 | ≤ 1000 |
| FC(F)(F)c1nc(-c2ccc(CN(c3cnccn3)c3cc4nccnc4cn3)s2)no1 [Example AF, N-{Pyrido[3,4-b]pyrazin-7-yl}-N-({5-[5-(trifluoromethyl)-1,2,4-oxadiazol-3-yl]thiophen-2-yl}methyl)pyrazin-2-amine] | > 10000 | ≤ 10000 | ≤ 1000 | ≤ 1000 | ≤ 10000 | ≤ 10000 |
| FC(F)(F)c1nc(-c2ccc(CN(c3ccc(C4CC4)cn3)c3cnccn3)s2)no1 [Example AA, N-(5-Cyclopropylpyridin-2-yl)-N-({5-[5-(trifluoromethyl)-1,2,4-oxadiazol-3-yl]thiophen-2-yl}methyl)pyrazin-2-amine] | > 10000 | ≤ 10000 | ≤ 10000 | ≤ 10000 | ≤ 10000 | ≤ 10000 |
| CN(C)C(=O)c1ccc(N(Cc2ccc(-c3noc(C(F)(F)F)n3)s2)c2cnccn2)nc1 [Example AC, N,N-Dimethyl-6-[pyrazin-2-yl({5-[5-(trifluoromethyl)-1,2,4-oxadiazol-3-yl]thiophen-2-yl}methyl)amino]pyridine-3-carboxamide] | > 10000 | ≤ 1000 | ≤ 1000 | ≤ 1000 | ≤ 10000 | ≤ 10000 |
| FC(F)(F)c1ccnc(N(Cc2ccc(-c3noc(C(F)(F)F)n3)s2)c2cnccn2)c1 [Example AI, N-({5-[5-(Trifluoromethyl)-1,2,4-oxadiazol-3-yl]thiophen-2-yl}methyl)-N-[4-(trifluoromethyl)pyridin-2-yl]pyrazin-2-amine] | > 10000 | > 10000 | ≤ 10000 | ≤ 10000 | > 10000 | > 10000 |
| COc1ccnc(N(Cc2ccc(-c3noc(C(F)(F)F)n3)s2)c2cnccn2)n1 [Example AU, 4-Methoxy-N-(pyrazin-2-yl)-N-({5-[5-(trifluoromethyl)-1,2,4-oxadiazol-3-yl]thiophen-2-yl}methyl)pyrimidin-2-amine] | > 10000 | ≤ 10000 | ≤ 10000 | ≤ 10000 | ≤ 10000 | ≤ 10000 |
| FC(F)(F)c1nc(-c2ccc(CN(c3cnccn3)c3ncccc3N3CCOCC3)s2)no1 [Example AN, N-[3-(Morpholin-4-yl)pyridin-2-yl]-N-({5-[5-(trifluoromethyl)-1,2,4-oxadiazol-3-yl]thiophen-2-yl}methyl)pyrazin-2-amine] | > 10000 | ≤ 10000 | ≤ 10000 | ≤ 1000 | ≤ 10000 | ≤ 10000 |
| Cc1nc(N2CCCC2)cc(N(Cc2ccc(-c3noc(C(F)(F)F)n3)s2)c2cnccn2)n1 [Example CQ, 2-Methyl-N-(pyrazin-2-yl)-6-(pyrrolidin-1-yl)-N-({5-[5-(trifluoromethyl)-1,2,4-oxadiazol-3-yl]thiophen-2-yl}methyl)pyrimidin-4-amine] | > 10000 | ≤ 10000 | ≤ 10000 | ≤ 10000 | ≤ 10000 | ≤ 10000 |
| Cc1nccc(N(Cc2ccc(-c3noc(C(F)(F)F)n3)s2)c2cnccn2)n1 [Example CA, 2-Methyl-N-(pyrazin-2-yl)-N-({5-[5-(trifluoromethyl)-1,2,4-oxadiazol-3-yl]thiophen-2-yl}methyl)pyrimidin-4-amine] | > 10000 | ≤ 1000 | ≤ 1000 | ≤ 10000 | ≤ 1000 | ≤ 1000 |
| Cc1ncnc(C)c1N(Cc1ccc(-c2noc(C(F)(F)F)n2)s1)c1cnccn1 [Example DC, 4,6-Dimethyl-N-(pyrazin-2-yl)-N-({5-[5-(trifluoromethyl)-1,2,4-oxadiazol-3-yl]thiophen-2-yl}methyl)pyrimidin-5-amine] | > 10000 | ≤ 500 | ≤ 500 | ≤ 10000 | ≤ 500 | ≤ 1000 |
| Cc1ncc(N(Cc2ccc(-c3noc(C(F)(F)F)n3)s2)c2cnccn2)c(C)n1 [Example DB, 2,4-Dimethyl-N-(pyrazin-2-yl)-N-({5-[5-(trifluoromethyl)-1,2,4-oxadiazol-3-yl]thiophen-2-yl}methyl)pyrimidin-5-amine] | > 10000 | ≤ 500 | ≤ 500 | ≤ 10000 | ≤ 1000 | ≤ 1000 |
